Test results reported in US20050152911A1, “Norovirus monoclonal antibodies and peptides” (priority 2003, published 2005).
Ends that are not written are not given here.

Columns and labels:
[1] = test system: rNV binding to CaCo-2 cells; conditions: serial dilutions of peptide, free and linked to carrier; Example 4 written in present tense
[2] = test system: rSMV binding to CaCo-2 cells; conditions: serial dilutions of peptide, free and linked to carrier; Example 4 written in present tense

Sequence | reduction of binding of rNV to CaCo-2 cells [1] | reduction of binding of rSMV to CaCo-2 cells [2]
WTRGGHGL [compound 1731, WTRGGHGL] | reduce the binding | –
WTRGQHQL [compound 1732, WTRGQHQL] | reduce the binding | –
WLPAPIDKL [peptide 1800, WLPAPIDKL] | – | reduces binding
WTRGSHNL [peptide 1730, WTRGSHNL] | reduce the binding | –
